# Tests used:
# Type in all cases: in vivo
# [1] = test system: Tobacco Budworm [Heliothis virescens (Fabricius)] eggs; assay: Tobacco budworm eggs (TBW-E); conditions: percent in solution; 2-day old eggs
# In short: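 LC50 values (percent test compound in the dip solution) were calculated from dosage-mortality curves. Egg patches, 2 days old, were dipped in acetone solutions at concentrations from 0.1% downward and held at 78° F on rearing medium until control larvae hatched and fed.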
# [2] = test system: Black Bean Aphid [Aphis fabae (Scop.)]; assay: Black bean aphid spray test on nasturtium (BBA), 48 hours; conditions: percent of test compound in sprayed solution
# In short: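 LC50, given as percent test compound in the sprayed liquid, was calculated from dosage-mortality curves using concentrations from 0.05% downward. Sprays in 50:50 acetone-water went to runoff on ~5 cm nasturtiums carrying 25-50 aphids of mixed ages, one day after infestation. Deaths were counted 48 h later under greenhouse conditions.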
# [3] = test system: Maize weevil [Sitophilus zeamais (Motschulsky)]; assay: Maize weevil on dipped corn seeds (MW), 48 hours; conditions: percent in solution, adult weevils
# In short: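 LC50, given as percent of compound in dipping solution, comes from dosage-mortality curves over concentrations descending from 0.01%. Four corn seeds soaked 2-3 s in 50:50 acetone:water solution were dried and held with 10 adult weevils, about 25° C, mortality read after 48 h.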
# [4] = test system: Aster Leafhopper [Macrosteles fascifrens (Stal)]; assay: Aster leafhopper on dipped oat seedlings (LH), 48 hours; conditions: percent in solution, adults/nymphs
# In short: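 Three ~10 cm oat seedlings per cup were dipped 2-3 seconds in 50-50 acetone-water compound solutions, dried, and caged with ten adult/nymph leafhoppers. Mortality was counted after 48 hours at concentrations from 0.05% downward. LC50, as percent compound in solution, came from dosage-mortality curves.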
# [5] = test system: Tobacco Budworm [Heliothis virescens (Fabricius)] larvae; assay: Tobacco budworm larvae, contact (TBW-C), 5 days; conditions: percent in solution, second-instar larvae
# Description: (§1) The compounds in Tables 1 and 2 above were tested for insecticidal activity using the following testing procedures. LC50 values, based on the results of these tests and calculated according to dosage-mortality curves, are expressed in Table 3.
# Tobacco Budworm [Heliothis virescens (Fabricius)]:
# (a) Contact: Test compounds were diluted in a 50-50 acetone-water solution. Cotton (Gossypium sp.) cotyledons were immersed in the test solutions for 2-3 seconds and placed on a wire screen to dry. The dried leaves were placed in petri dishes containing a moistened piece of filter paper and infested with 5 second-instar tobacco budworm larvae. The dishes were placed in a high humidity chamber for 5 days, and percent mortality of the larvae recorded. Test concentrations ranged from 0.1% downward. The LC-50 values are expressed below in Table 3 under the heading "TBW-C" in terms of percent of the test compound in the solution.
# [6] = test system: Housefly [Musca domestica]; assay: Housefly contact mortality in dishes (HF), 48 hours; conditions: μg of test compound per 25 female flies
# In short: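 Dose range started at 100 μg per 25 female flies and went downward. Insects (1-2 days old) contacted a dried acetone/peanut-oil deposit in dishes; LC50 values come from dosage-mortality curves at 48 h.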
# [7] = test system: Cabbage Looper [Trichoplusia ni (Hubner)]; assay: Cabbage looper leaf dip (CL), 3-5 days; conditions: percent in solution, second-instar larvae
# In short: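 Leaf dip, squash cotyledons, 50-50 acetone-water, top dose 0.1% and lower. 5 second-instar larvae/dish, moist filter paper, high-humidity chamber. Mortality at 3-5 d; LC50 (% in solution) from dosage-mortality curves.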
# [8] = test system: Beet Armyworm (Spodoptera exigua); assay: Beet armyworm leaf dip (BAW), 5 days; conditions: percent in solution; second-instar larvae; five days
# Description: as §1
# Beet Armyworm (Spodoptera exigua):
# Test compounds were diluted in a 50-50 acetone-water solution. Young leaves of sugar beets (Beta vulgaris) were immersed in the test solutions for 2-3 seconds and placed on a wire screen to dry. The dried leaves were placed in petri dishes containing a moistened filter paper and infested with five second-instar beet armyworm larvae. The dishes were placed in a high humidity chamber. Mortality of the larvae was recorded five days later. Test concentrations ranged from 0.1% downward. The LC-50 values are expressed below in Table 3 under the heading "BAW" in terms of percent of the test compound in solution.
SMILES,LC50 TBW E (eggs) [1],LC50 BBA [2],LC50 MW [3],LC50 LH [4],LC50 TBW C (contact) [5],LC50 HF [6],LC50 CL [7],LC50 BAW [8]
CC(C)C(=Nc1cccc(C(F)(F)F)c1)OCc1cccc(Oc2ccc(F)cc2)c1 [Compound 202],> 0.1%,0.003%,> 0.01%,0.0003%,0.0007%,18 µg,0.00024%,–
CC(C)C(=Nc1ccc(I)cc1)OCc1cccc(Oc2ccc(F)cc2)c1 [Compound 234],0.09%,0.003%,> 0.01%,0.003%,0.0013%,38 µg,0.00045%,–
CC(C)C(=Nc1cccc(Cl)c1)OCc1cccc(Oc2ccc(F)cc2)c1 [Compound 194],0.04%,0.001%,> 0.01%,0.0005%,0.0017%,10 µg,0.0005%,–
CC(C)C(=Nc1ccc(C(F)(F)F)cc1)OCc1cccc(Oc2ccc(Cl)cc2)n1 [Compound 530],0.005%,0.0003%,> 0.01%,0.05%,0.00005%,9.8 µg,0.00027%,–
C#CCc1c(F)c(F)c(COC(=Nc2ccc(F)c(Cl)c2)C(C)C)c(F)c1F [Compound 520],> 0.1%,0.0002%,0.0042%,0.0003%,0.00075%,5.5 µg,> 0.1%,–
CC(C)C(=Nc1ccc(F)c(Cl)c1F)OCc1cccc(Oc2ccc(F)cc2)n1 [Compound 521],> 0.1%,0.0008%,0.01%,0.05%,0.0005%,7.5 µg,0.00005%,–
CC(C)C(=Nc1ccc(F)cc1F)OCc1cccc(Oc2ccc(F)cc2)c1 [Compound 209],0.1%,0.01%,> 0.01%,0.001%,0.005%,17 µg,0.0007%,–
CC(C)C(=Nc1ccc(Br)cc1)OCc1cccc(Oc2ccc(F)cc2)c1 [Compound 226],0.1%,0.01%,0.009%,0.002%,0.001%,16 µg,0.0005%,–
CC(C)C(=Nc1ccc(F)c(C(F)(F)F)c1)OCc1cccc(Oc2ccc(F)cc2)c1 [Compound 120],0.04%,0.0006%,> 0.01%,0.0003%,0.0025%,14 µg,0.00015%,–
CC(C)C(=Nc1ccc(F)c(Cl)c1)OCc1cccc(Oc2ccc(Br)cc2)c1 [Compound 238],0.05%,0.003%,> 0.01%,> 0.05%,0.0004%,25 µg,0.0002%,–
CC(C)C(=Nc1ccc(Cl)cc1)OCc1ccc(F)c(Oc2ccccc2)c1 [Compound 23],0.017%,0.001%,–,–,–,5 µg,0.0005%,0.001%
CC(C)C(=Nc1ccc(F)c(Cl)c1)OCc1cccc(Oc2ccccc2)n1 [Compound 462],0.04%,0.001%,> 0.05%,0.001%,0.0025%,7 µg,0.001%,–
Fc1ccc(N=C(OCc2cccc(Oc3ccccc3)c2)C2CC2)cc1 [Compound 45],–,0.03%,–,> 0.05%,–,30 µg,0.03%,0.1%
CC(C)(C)C(=Nc1ccc(Cl)cc1)OCc1cccc(Oc2ccccc2)c1 [Compound 30],> 0.1%,> 0.05%,> 0.01%,> 0.05%,0.01%,> 100 µg,0.003%,–
CC(C)C(=Nc1ccc(F)c(Cl)c1)OCc1cccc(Oc2ccc(F)c(F)c2)n1 [Compound 531],> 0.1%,> 0.05%,> 0.01%,> 0.05%,0.00037%,5 µg,> 0.1%,–
O=[N+]([O-])c1cccc(N=C(OCc2cccc(Oc3ccccc3)c2)C(Cl)Cl)c1 [Compound 174],> 0.1%,0.05%,–,–,–,17 µg,0.03%,0.1%
CC(C)C(=Nc1ccc(Cl)c(Cl)c1)OCc1cccc(Oc2ccc(Cl)cc2)n1 [Compound 523],> 0.1%,0.001%,> 0.01%,> 0.05%,0.0002%,22 µg,0.00015%,–
CC(C)C(=Nc1ccc(F)c(Br)c1)OCc1cccc(Oc2ccc(F)cc2)c1 [Compound 253],> 0.1%,0.002%,> 0.01%,0.003%,0.0005%,10 µg,0.00013%,–

# Source: patent publication US5045566A, “Novel imidate insecticides” (ICI Americas Inc., priority 1989, dated 1991)
